Marks after values point to notes of the source that are not given here.
Tests used:
[1] = system: EAE model of MS; assay: T cell encephalitogenicity in adoptive transfer after in vitro treatment of the cells; type: in vivo; set-up: dose or concentration left out as unconfirmed; conditions: cells activated 3 days, then transferred into naïve B10PL mice
Method: (§1) EAE Induction. Immunization: 8-10 week old B6/WT or SJL/WT mice were s.c. injected over four sites in the flank with 200 μg MOG 35-55 or […] (CS bio) in an emulsion with CFA (Difco). 200 ng pertussis toxin (List) per mouse in PBS was injected i.p. at the time of immunization and 48 h later. Adoptive transfer: Splenocytes were isolated from naïve 5-10-week-old Vα2.3/Vβ8.2 TCR transgenic mice and activated with 10 μg/ml of MBP Ac1-11 with or without rmIL-6 in 24-well plates at […] with irradiated B10.PL splenocytes (6×10^8 cells/well). After 72 hours, the cells were washed with PBS and 8×10^6 were injected i.p. into naïve B10.PL mice. Evaluation. The mice were evaluated daily for clinical signs of EAE. Mice were scored on scale of 0 to 6:0, no clinical disease; 1, limp/flaccid tail; 2, moderate hind limb weakness; 3. severe hind limb weakness; 4. complete hind limb paralysis; 5 quadriplegia or premoribund state; and 6, death.
DMSO was used as vehicle control. The cells were then adoptively transferred into naïve B10PL mice (disease incidence). Data are representative of multiple independent experiments.

[2] = system: pSTAT3 in myelin-specific CD4 T cells; assay: pSTAT3 levels in myelin-specific CD4 T cells (intracellular flow cytometry); type: cell-based, mice; conditions: 0.250 μM; MBP Ac1-11 and IL-6 activation
Method: Intracellular staining and flow cytometric analysis. Flow cytometric analysis was performed to evaluate the expression of surface markers and T-bet in CD4 T cells, as previously described (Yang, Weiner et al. 2009). Briefly, splenocytes were activated with antigen or αCD3/CD28 for 48 to 72 hours. Cells were then collected, washed, and resuspended in staining buffer (1% BSA in PBS). The cells were incubated with mAbs to the cell-surface markers for 30 min at 4° C. After washing twice with staining buffer, cells were fixed and permeabilized using Cytofix/Cytoperm solution for 20 min at 4° C. Cells were stained for intracellular cytokines and T-bet for 30 min at 4° C. 80,000-100,000 live cell events were acquired on a FACSCanto (BD) and analyzed using FlowJo software (Tree Star, Inc.). PerCP-anti-CD4, and Pacific Blue-anti-CD44 were purchased from BD. PE-anti-PD-1, PE-Cy7-anti-IL-7Rα and Pacific Blue-anti-T-bet were purchased from Biolegend Biotechnology, Inc.
LLL12b suppresses pSTAT3 expression and IL-17 production in myelin-specific CD4 T cells in a dose-dependent manner. LLL21b was further tested to assess suppression of pSTAT3 expression in myelin-specific CD4 T cells. FIGS. 7A-7B show representative data for the effect of a representative disclosed compound, LLL12b, on IL-17 production, pSTAT3 levels, and cell viability under various conditions. […]

[3] = system: adoptively transferred EAE; assay: Adoptively transferred EAE model of MS (B10.PL mice); type: in vivo
Method: as §1
The in vivo efficacy of LLL12b was evaluated in adoptively transferred EAE model by treating EAE mice with […] of LLL12b for 7 days after disease onset. FIGS. 9A-9C show representative data for the effect of a representative disclosed compound, LLL12b, on suppression of EAE development in an adoptive transfer EAE model of MS. […] The mice were then treated with either DMSO or a representative disclosed compound, LLL12b, (10 mg/kg) by daily intraperitoneal for 7 days. […] The summary of all four independent experiments was shown below in Table 1.
EAE was induced via adoptive transfer of activated myelin-specific CD4 T cells from Vα2.3/Vβ8.2 TCR transgenic mice into B10.PL mice. LLL12b or DNSO (vehicle control) was injected i.p. into mice daily for 7 days, starting when 70% of the mice developed clinical EAE. Mice were monitored for clinical signeds of EAE. Assessment of clinical EAE includes the incidence of EAE, the mean peak clinical scores±SEM and the area under the curve. The results of three independent experiments are shown. ^aP<0.01, comparing incidence of EAE in LLL12b group versus DMSO group. ^bP<0.01, comparing mean peak clinical score of LLL12b group versus DMSO group. ^cP<0.05, comparing area under the curve of LLL12b group versus DMSO group.
LLL12b treatment suppresses the production of inflammatory cytokines in myelin-specific CD4 T cells and promotes Treg development in vivo. The ex vivo analysis to determine the T effector function of myelin-specific CD4 T cells as well as Treg development in treated mice was carried. FIGS. 10A-10C show representative data for the effect of treatment with a representative disclosed compound. LLL12b, on Treg development in an adoptively transferred EAE model of MS. Briefly, splenocytes from were isolated from either a LLL12b- or DMSO-treated group as indicated and analysed.

[4] = system: Teff cells from MS patients; assay: CFSE-based Treg-mediated suppression assay on Teff cells from MS patients; type: cell-based, human; conditions: 0.25 μM for 1-2 hrs; 3 treatment-naïve MS patients
Method: FIGS. 15A-15C show representative data for LLL12b enhancement of Treg-mediated suppression on Teff cells obtained from MS patients. PBMCs were obtained from three treatment-naïve MS patients and were activated with αhCD3/CD28 plus rhTGFβ, rhIL-2 and RA for 3 days to generate Tregs. Meanwhile, PBMCs from the same three MS patients were labeled with CFSE and cultured with 0.25 μM of LLL12b or DMSO for 1-2 hours. The LLL12b or DMSO treated CFSE-CD4 T cells were then mixed with Tregs generated from the same patient at different ratios and activated with αhCD3 for 5 days. Proliferation of Teff cells was determined by flow cytometric analysis of CFSE on CD4 T cells. Cells were gated on CD4+ cells.
LLL12b enhances Treg mediated suppression on Teff cells from MS patients. Since Teff cells from MS patients are resistant to Treg mediated suppression and IL-6/STAT3 signaling promotes the resistance of Teff in MS patient, we determined whether LLL12b may enhance the Treg-mediated suppression on Teff from MS patients using CFSE-based suppression assay. PBMCs from three treatment-naïve MS patients were labeled with CFSE and cultured with 0.25 μM of LLL12b or DMSO for 1-2 hrs. Then the CFSE-CD4 T cells were mixed with iTregs differentiated from the same patient at different ratio, and activated with αhCD3 for 5 days. […]

| SMILES | T cell encephalitogenicity in adoptive transfer [1] | pSTAT3 expression [2] | EAE development (in words) ([3]; 10 mg/kg daily intraperitoneal for 7 days after disease onset) | level of CD25+FoxP3+CD4+ Treg cells in splenocytes of treated animals ([3]; ex vivo flow cytometry) | production of IFNγ by splenocytes of treated animals (ELISA) ([3]; ex vivo, activated with MBP Ac1-11 for 3 days) | Area under the curve (clinical score) ([3]; i.p. daily for 7 days) | Incidence of EAE (%) ([3]; i.p. daily for 7 days, starting when 70% of the mice developed clinical EAE) | Mean peak clinical score ([3]; i.p. daily for 7 days, ± SEM) | Treg mediated suppression on Teff cells (% suppression) [4] |
| --- | --- | --- | --- | --- | --- | --- | --- | --- | --- |
| NS(=O)(=O)c1cccc2c1C(=O)c1cccc(O)c1C2=O [LLL12] | inhibits T cell encephalitogenicity | – | – | – | – | – | – | – | – |
| CN(C)C(=O)Oc1cccc2c1C(=O)c1cccc(S(N)(=O)=O)c1C2=O [LLL12b] | – | notably suppresses pSTAT3 expression | significantly suppresses EAE development | statistically significant increase | notable decrease | 22.12 ± 2.09 ^c | 26/34 (76%) ^a | 2.03 ± 0.27 ^b | significantly increased |

From patent US12594265B2, “Methods and compositions for inhibition of STAT3” (Ohio State Innovation Foundation, priority 2017, dated 2026)
